Values after ≈ are worked out from the molar mass of the structure shown. Where two headings read alike, the source gives them in different places.
Legend:
Test in all cases: MIC (Minimum Inhibitory Concentration)
Format in all cases: cell-based
[1] = test system: Streptococcus haemolyticus; conditions: read-out: MIC values
Excerpt: (§1) In addition they may be used for combatting plant diseases, in particular as fungicides. A list of MIC (Minimum Inhibitory Concentration) values for a number of microorganisms is listed herebelow. The figures in the column headings refer to the compounds prepared according to the experimental examples in comparison with the spectrum of 1-[2-(2,4-dichlorophenyl)-2-{(2,4-dichlorophenyl)-methoxy} -ethyl7-1H-imidazole (better known under the name of miconazole, c.f. Merck Index 9th Ed. page 6047) or natamycin (pimaricin, c.f. Merck Index 9th Ed. page 7233).

[2] = test system: Trichophyton schoenleinii; conditions: read-out: MIC values
Excerpt: as §1

Trichophyton rubrum = test system: Trichophyton rubrum
Excerpt: as §1

Pasteurella multocida = conditions: read-out: MIC values
Excerpt: as §1

Trichophyton equinum = test system: Trichophyton equinum
Excerpt: as §1

Candida albicans = test system: Candida albicans
Excerpt: as §1

Trichophyton violoceum = conditions: read-out: MIC values
Excerpt: as §1

Trichophyton quickeaneum = conditions: read-out: MIC values
Excerpt: as §1

Trichophyton verrucosum = test system: Trichophyton verrucosum
Excerpt: as §1

[3] = test system: Trichophyton mentagrophytus
Excerpt: as §1

Trichophyton tonsurans = conditions: read-out: MIC values
Excerpt: as §1

[4] = read-out: MIC values, Trichophyton rubrum 218-65
[5] = read-out: MIC values, Trichophyton rubrum 494-62
[6] = read-out: MIC values, Trichophyton equinum 182-76
[7] = read-out: MIC values, Trichophyton equinum 856-71
[8] = read-out: MIC values, Candida albicans A 7
[9] = read-out: MIC values, Candida albicans A 3140
[10] = read-out: MIC values, Candida albicans A 3141
[11] = read-out: MIC values, Candida albicans A 3142
[12] = read-out: MIC values, Candida albicans A 3143
[13] = read-out: MIC values, Candida albicans A 3144
[14] = read-out: MIC values, Candida albicans A 3145
[15] = read-out: MIC values, Candida albicans A 3165
[16] = read-out: MIC values, Candida albicans A 3166
[17] = read-out: MIC values, Candida albicans A 3167
[18] = read-out: MIC values, Candida albicans A 3168
[19] = read-out: MIC values, Candida albicans A 3169
[20] = read-out: MIC values, Candida albicans A 3171
[21] = read-out: MIC values, Candida albicans A 3184
[22] = read-out: MIC values, Candida albicans A 3190
[23] = read-out: MIC values, Candida albicans A 3191
[24] = read-out: MIC values, Candida albicans A 3192
[25] = read-out: MIC values, Candida albicans A 3194
[26] = read-out: MIC values, Candida albicans A 3196
[27] = read-out: MIC values, Trichophyton mentagrophytus 367-68
[28] = read-out: MIC values, Trichophyton mentagrophytus 421-67
[29] = read-out: MIC values, Trichophyton mentagrophytus A 3252
[30] = read-out: MIC values, Trichophyton mentagrophytus R 177
[31] = read-out: MIC values, Trichophyton mentagrophytus R 178
[32] = read-out: MIC values, Trichophyton mentagrophytus RRL 305

Structure (SMILES): [C-]#[N+]C(C1=CCCCCC1)S(=O)(=O)c1ccc(C)cc1 (stereo not shown) [Example 18b, a-(cyclohepten-1-yl)-a-(4-toluenesulphonyl)-methylisocyanide]
- MIC ([1]; Streptococcus): 25 mg/L (≈ 86.4 µM)
- MIC ([2]; Trichophyton schoenleinii): 6 mg/L (≈ 20.7 µM)
- MIC (Trichophyton rubrum; [4]): 100 mg/L (≈ 346 µM)
- MIC (Trichophyton rubrum; [5]): > 100 mg/L
- MIC (Pasteurella multocida; Pasteurella multocida): 50 mg/L (≈ 173 µM)
- MIC (Trichophyton equinum; [6]): > 100 mg/L
- MIC (Trichophyton equinum; read-out: MIC values, Trichophyton equinum 441-51): < 0.05 mg/L
- MIC (Trichophyton equinum; [7]): 100 mg/L (≈ 346 µM)
- MIC (Candida albicans; [8]): 6 mg/L (≈ 20.7 µM)
- MIC (Candida albicans; [9]): 6 mg/L (≈ 20.7 µM)
- MIC (Candida albicans; [10]): 12.5 mg/L (≈ 43.2 µM)
- MIC (Candida albicans; [11]): 12.5 mg/L (≈ 43.2 µM)
- MIC (Candida albicans; [12]): 12.5 mg/L (≈ 43.2 µM)
- MIC (Candida albicans; [13]): 12.5 mg/L (≈ 43.2 µM)
- MIC (Candida albicans; [14]): 6 mg/L (≈ 20.7 µM)
- MIC (Candida albicans; [15]): 12.5 mg/L (≈ 43.2 µM)
- MIC (Candida albicans; [16]): 12.5 mg/L (≈ 43.2 µM)
- MIC (Candida albicans; [17]): 12.5 mg/L (≈ 43.2 µM)
- MIC (Candida albicans; [18]): 6 mg/L (≈ 20.7 µM)
- MIC (Candida albicans; [19]): 12.5 mg/L (≈ 43.2 µM)
- MIC (Candida albicans; [20]): 12.5 mg/L (≈ 43.2 µM)
- MIC (Candida albicans; [21]): 12.5 mg/L (≈ 43.2 µM)
- MIC (Candida albicans; [22]): 12.5 mg/L (≈ 43.2 µM)
- MIC (Candida albicans; [23]): 12.5 mg/L (≈ 43.2 µM)
- MIC (Candida albicans; [24]): 12.5 mg/L (≈ 43.2 µM)
- MIC (Candida albicans; [25]): 25 mg/L (≈ 86.4 µM)
- MIC (Candida albicans; [26]): 12.5 mg/L (≈ 43.2 µM)
- MIC (Trichophyton violoceum; Trichophyton): 6 mg/L (≈ 20.7 µM)
- MIC (Trichophyton quickeaneum; Trichophyton): 25 mg/L (≈ 86.4 µM)
- MIC (Trichophyton verrucosum; read-out: MIC values, Trichophyton verrucosum 134-66): 3 mg/L (≈ 10.4 µM)
- MIC (Trichophyton verrucosum; read-out: MIC values, Trichophyton verrucosum A 2922): 12.5 mg/L (≈ 43.2 µM)
- MIC [3, 27]: 25 mg/L (≈ 86.4 µM)
- MIC [3, 28]: > 100 mg/L
- MIC [3, 29]: > 100 mg/L
- MIC [3, 30]: > 100 mg/L
- MIC [3, 31]: > 100 mg/L
- MIC [3, 32]: > 100 mg/L

Structure (SMILES): [C-]#[N+]C(=CCCC)S(=O)(=O)c1ccc(C)cc1 [Example 24, 1-isocyano-1-(4-toluenesulphonyl)-1-pentene]
- MIC ([1]; Streptococcus haemolyticus A 1088): 100 mg/L (≈ 401 µM)
- MIC ([2]; Trichophyton schoenleinii 435-63): 25 mg/L (≈ 100 µM)
- MIC (Trichophyton tonsurans; Trichophyton tonsurans 561-50): 25 mg/L (≈ 100 µM)
- MIC (Trichophyton rubrum; Trichophyton rubrum 218-65, read-out: MIC values): 25 mg/L (≈ 100 µM)
- MIC (Trichophyton rubrum; Trichophyton rubrum 494-62, read-out: MIC values): 50 mg/L (≈ 201 µM)
- MIC (Trichophyton rubrum; Trichophyton rubrum A 810, read-out: MIC values): 25 mg/L (≈ 100 µM)
- MIC (Pasteurella multocida; Pasteurella multocida A 723): 50 mg/L (≈ 201 µM)
- MIC (Trichophyton equinum; Trichophyton equinum 182-76, read-out: MIC values): 50 mg/L (≈ 201 µM)
- MIC (Trichophyton equinum; Trichophyton equinum 856-71, read-out: MIC values): 50 mg/L (≈ 201 µM)
- MIC (Candida albicans; Candida albicans A 7, read-out: MIC values): 25 mg/L (≈ 100 µM)
- MIC (Candida albicans; Candida albicans A 3140, read-out: MIC values): 25 mg/L (≈ 100 µM)
- MIC (Candida albicans; Candida albicans A 3141, read-out: MIC values): 25 mg/L (≈ 100 µM)
- MIC (Candida albicans; Candida albicans A 3142, read-out: MIC values): 3 mg/L (≈ 12 µM)
- MIC (Candida albicans; Candida albicans A 3143, read-out: MIC values): 12.5 mg/L (≈ 50.1 µM)
- MIC (Candida albicans; Candida albicans A 3144, read-out: MIC values): 12.5 mg/L (≈ 50.1 µM)
- MIC (Candida albicans; Candida albicans A 3145, read-out: MIC values): 12.5 mg/L (≈ 50.1 µM)
- MIC (Candida albicans; Candida albicans A 3165, read-out: MIC values): 25 mg/L (≈ 100 µM)
- MIC (Candida albicans; Candida albicans A 3166, read-out: MIC values): 50 mg/L (≈ 201 µM)
- MIC (Candida albicans; Candida albicans A 3167, read-out: MIC values): 50 mg/L (≈ 201 µM)
- MIC (Candida albicans; Candida albicans A 3168, read-out: MIC values): 50 mg/L (≈ 201 µM)
- MIC (Candida albicans; Candida albicans A 3169, read-out: MIC values): 25 mg/L (≈ 100 µM)
- MIC (Candida albicans; Candida albicans A 3171, read-out: MIC values): 25 mg/L (≈ 100 µM)
- MIC (Candida albicans; Candida albicans A 3184, read-out: MIC values): 25 mg/L (≈ 100 µM)
- MIC (Candida albicans; Candida albicans A 3190, read-out: MIC values): 25 mg/L (≈ 100 µM)
- MIC (Candida albicans; Candida albicans A 3191, read-out: MIC values): 25 mg/L (≈ 100 µM)
- MIC (Candida albicans; Candida albicans A 3192, read-out: MIC values): 25 mg/L (≈ 100 µM)
- MIC (Candida albicans; Candida albicans A 3194, read-out: MIC values): 25 mg/L (≈ 100 µM)
- MIC (Candida albicans; Candida albicans A 3196, read-out: MIC values): 25 mg/L (≈ 100 µM)
- MIC (Trichophyton violoceum; Trichophyton violoceum 442-62): 25 mg/L (≈ 100 µM)
- MIC (Trichophyton quickeaneum; Trichophyton quickeaneum A 2040): 100 mg/L (≈ 401 µM)
- MIC ([3]; Trichophyton mentagrophytus 367-68, read-out: MIC values): 100 mg/L (≈ 401 µM)
- MIC ([3]; Trichophyton mentagrophytus 421-67, read-out: MIC values): 50 mg/L (≈ 201 µM)
- MIC ([3]; Trichophyton mentagrophytus A 3252, read-out: MIC values): 25 mg/L (≈ 100 µM)
- MIC ([3]; Trichophyton mentagrophytus R 177, read-out: MIC values): 25 mg/L (≈ 100 µM)
- MIC ([3]; Trichophyton mentagrophytus R 178, read-out: MIC values): 25 mg/L (≈ 100 µM)
- MIC ([3]; Trichophyton mentagrophytus RRL 305, read-out: MIC values): 50 mg/L (≈ 201 µM)

Structure (SMILES): [C-]#[N+]C(=C1CCCCC1)S(=O)(=O)c1ccccc1 [Example 25, a-cyclohexylidene-a-benzenesulphonylmethyl-isocyanide]
- MIC ([1]; Streptococcus): 25 mg/L (≈ 95.7 µM)
- MIC ([2]; Trichophyton schoenleinii): 0.8 mg/L (≈ 3.06 µM)
- MIC (Trichophyton tonsurans; Trichophyton tonsurans): 0.2 mg/L (≈ 0.765 µM)
- MIC (Trichophyton rubrum; [4]): 0.4 mg/L (≈ 1.53 µM)
- MIC (Trichophyton rubrum; [5]): 6 mg/L (≈ 23 µM)
- MIC (Trichophyton rubrum; read-out: MIC values, Trichophyton rubrum A 810): 0.4 mg/L (≈ 1.53 µM)
- MIC (Pasteurella multocida; Pasteurella multocida): 3 mg/L (≈ 11.5 µM)
- MIC (Trichophyton equinum; [6]): 6 mg/L (≈ 23 µM)
- MIC (Trichophyton equinum; [7]): 12.5 mg/L (≈ 47.8 µM)
- MIC (Candida albicans; [8]): 1.5 mg/L (≈ 5.74 µM)
- MIC (Candida albicans; [9]): 1.5 mg/L (≈ 5.74 µM)
- MIC (Candida albicans; [10]): 1.5 mg/L (≈ 5.74 µM)
- MIC (Candida albicans; [11]): 1.5 mg/L (≈ 5.74 µM)
- MIC (Candida albicans; [12]): 1.5 mg/L (≈ 5.74 µM)
- MIC (Candida albicans; [13]): 3 mg/L (≈ 11.5 µM)
- MIC (Candida albicans; [14]): 3 mg/L (≈ 11.5 µM)
- MIC (Candida albicans; [15]): 3 mg/L (≈ 11.5 µM)
- MIC (Candida albicans; [16]): 1.5 mg/L (≈ 5.74 µM)
- MIC (Candida albicans; [17]): 3 mg/L (≈ 11.5 µM)
- MIC (Candida albicans; [18]): 6 mg/L (≈ 23 µM)
- MIC (Candida albicans; [19]): 1.5 mg/L (≈ 5.74 µM)
- MIC (Candida albicans; [20]): 3 mg/L (≈ 11.5 µM)
- MIC (Candida albicans; [21]): 1.5 mg/L (≈ 5.74 µM)
- MIC (Candida albicans; [22]): 3 mg/L (≈ 11.5 µM)
- MIC (Candida albicans; [23]): 6 mg/L (≈ 23 µM)
- MIC (Candida albicans; [24]): 1.5 mg/L (≈ 5.74 µM)
- MIC (Candida albicans; [25]): 3 mg/L (≈ 11.5 µM)
- MIC (Candida albicans; [26]): 3 mg/L (≈ 11.5 µM)
- MIC (Trichophyton violoceum; Trichophyton): 3 mg/L (≈ 11.5 µM)
- MIC (Trichophyton quickeaneum; Trichophyton): 3 mg/L (≈ 11.5 µM)
- MIC [3, 27]: 1.5 mg/L (≈ 5.74 µM)
- MIC [3, 28]: 1.5 mg/L (≈ 5.74 µM)
- MIC [3, 29]: 3 mg/L (≈ 11.5 µM)
- MIC [3, 30]: 3 mg/L (≈ 11.5 µM)
- MIC [3, 31]: 3 mg/L (≈ 11.5 µM)
- MIC [3, 32]: 3 mg/L (≈ 11.5 µM)

— patent EP0007672A1, “Isocyanoalkenes, process and useful intermediates for their preparation, pharmaceutical and fungicidal preparations containing those isocyanoalkenes and the use of the fungicidal preparations in agriculture” (GIST-BROCADES N.V., priority 1978, dated 1980)
